Assay: method code G-GLC, from DOI: 10.1021/je0101909

| Structure (SMILES) | logP |
| --- | --- |
| Clc1ccc(-c2cc(Cl)c(Cl)c(Cl)c2)c(Cl)c1 | 6.5 |
| Clc1ccc(-c2cc(Cl)c(Cl)cc2Cl)cc1Cl | 6.49 |
| Clc1cc(Cl)c(-c2cc(Cl)c(Cl)c(Cl)c2)cc1Cl | 6.82 |
| Clc1cc(-c2cc(Cl)c(Cl)c(Cl)c2)cc(Cl)c1Cl | 7.01 |
| Clc1ccc(-c2cc(Cl)c(Cl)c(Cl)c2)cc1 | 6.53 |
| Clc1ccc(-c2cc(Cl)c(Cl)c(Cl)c2Cl)cc1Cl | 6.75 |
| Clc1ccc(-c2cc(Cl)c(Cl)c(Cl)c2)cc1Cl | 6.56 |
| Clc1cc(-c2cc(Cl)c(Cl)c(Cl)c2Cl)cc(Cl)c1Cl | 7.15 |
| Clc1ccc(-c2cc(Cl)c(Cl)c(Cl)c2Cl)cc1 | 6.47 |
| Clc1cc(-c2ccc(Cl)c(Cl)c2Cl)cc(Cl)c1Cl | 6.73 |
| Clc1ccc(-c2ccc(Cl)c(Cl)c2Cl)cc1Cl | 6.61 |

Reference: the SangsterLogP compilation
